Measurements: patent US4758580A, “Inhibiting growth of tumors with certain substituted phenoxy dimethyl alkanoic acids, esters or salts” (Yamanouchi Pharmaceutical Co., Ltd., priority 1985, dated 1988)

Columns and labels:
Ehrlich solid tumor = assay: Anti-tumor test against Ehrlich solid tumor; format: in vivo, ddY/SLC mice
Method: Ehrlich tumor cells, 2×10^6, on Day 7 after intraperitoneal transplantation to ddY/SLC mice were subcutaneously transplanted in the left abdomen of ddY/SLC mice (5 week age, male), 10 each grouped into one. The active component was intraperitoneally or orally administered in a definite dose 24 hours after the transplantation, according to the schedule shown in Table 1 (A), (B) or (C). An effect of inhibiting growth of tumor was compared, by measuring the long diameter and short diameter of the tumor on 14, 20 and 21 Days after the transplantation, calculating the tumor size (mm^2) and determining a tumor growth inhibition rate of the group administered with the active component to the control group according to the following equation:
Growth inhibition rate (%)=(C-T)/C×100
T: means tumor size (mm^2) in the active component-administered group
C: mean tumor size (mm^2) in the control group

melanoma BL-6 = assay: Inhibition of experimental metastasis (to the lung) of melanoma BL-6 in mice; format: in vivo, male BDF1 /SLC mice; settings: 22th day
Method: (b) Inhibition of experimental metastasis (to the lung) of melanoma BL-6 in mice
BL-6 cancer cells, 5×10^4, were inoculated into the tail veins of male BDF1 /SLC mice (6 week age) of 6 mice each being grouped in one (13 mice for the control group). The test compounds were administered orally in a definite dose 24 hours after the inoculation. In order to see metastasis-inhibitory effect, on 22th day after the inoculation, the mice were anatomised to observe the metastasis to the lungs. The degree of metastasis was evaluated by the number of pulmonary nodules. [formula] T: Median number of pulmonary nodules of the administered group C: Median number of pulmonary nodules of the control group

MM-46 solid tumor = assay: Test against mouse mammalian MM-46 solid tumor; format: in vivo, C3 H/He/SLC mice; settings: 1-9 Days
Method: (§1) MM-46 Tumor cells, 1×10^6, on Day 7 after intraperitoneal transplantation to C3 H/He/SLC mice were subcutaneously transplanted to the left abdomen of C3 H/He/SLC mice (5 week age, male) of 8 mice each being grouped in one (21 mice for the control group). The active component was orally administered in a definite dose 24 hours after the transplantation according to the schedule shown in Table 2. An effect of tumor growth inhibition was compared by measuring the long diameter and short diameter of the tumor on Days 14 and 21 after the transplantation, calculating the tumor size (mm^2) and determining a tumor growth inhibition rate of the active component-administered group to the control group.

Meth A solid tumor = assay: Anti-tumor test against methyl cholanthrene-induced Meth A solid tumor; format: in vivo, Balb/C/SLC mice; settings: 1-8 Days
Method: as §1, with “Meth A tumor” for “MM-46 Tumor”, “1.5×10^6,” for “1×10^6,”, “Balb/C/SLC” for “C3 H/He/SLC”, “(16” for “(21”, “3.” for “2.”, “15” for “14”

[1] = Day 14, 25 mg/kg i.p., Days 1, 2, 3, 5, 6, 7 & 9
[2] = Day 14, 50 mg/kg i.p., Days 1, 2, 3, 5, 6, 7 & 9
[3] = Day 14, 100 mg/kg i.p., Days 1, 2, 3, 5, 6, 7 & 9
[4] = Day 21, 25 mg/kg i.p., Days 1, 2, 3, 5, 6, 7 & 9
[5] = Day 21, 50 mg/kg i.p., Days 1, 2, 3, 5, 6, 7 & 9
[6] = Day 21, 100 mg/kg i.p., Days 1, 2, 3, 5, 6, 7 & 9
[7] = Day 14, 50 mg/kg i.p., Days 1, 2, 3, 4, 6, 7, 8, 9
[8] = Day 14, 100 mg/kg i.p., Days 1, 2, 3, 4, 6, 7, 8, 9
[9] = Day 21, 50 mg/kg i.p., Days 1, 2, 3, 4, 6, 7, 8, 9
[10] = Day 21, 100 mg/kg i.p., Days 1, 2, 3, 4, 6, 7, 8, 9
[11] = 50 mg/kg oral, 1, 2, 3, 5, 6, 7, 8, 9 and 10 days
[12] = 100 mg/kg oral, 1, 2, 3, 5, 6, 7, 8, 9 and 10 days
[13] = Day 14, 1.0 mg/kg i.p., Days 1, 2, 3, 5 & 6
[14] = Day 21, 1.0 mg/kg i.p., Days 1, 2, 3, 5 & 6

CCOC(=O)C(C)(C)CCCCCOc1ccc(OCCCCCn2ccnc2)cc1 [Compound C]
Growth Inhibition Rate (Ehrlich solid tumor; [1]): 18.4% | Size of Tumor (Ehrlich solid tumor; [1]): 191.1 ± 88.8 mm^2 | Growth Inhibition Rate (Ehrlich solid tumor; [2]): 42.4% | Size of Tumor (Ehrlich solid tumor; [2]): 135.0 ± 66.9 mm^2 | Growth Inhibition Rate (Ehrlich solid tumor; [3]): 54.2% | Size of Tumor (Ehrlich solid tumor; [3]): 107.3 ± 46.7 mm^2 | Growth Inhibition Rate (Ehrlich solid tumor; [4]): 31.9% | Size of Tumor (Ehrlich solid tumor; [4]): 363.1 ± 188.8 mm^2 | Growth Inhibition Rate (Ehrlich solid tumor; [5]): 61.0% | Size of Tumor (Ehrlich solid tumor; [5]): 207.9 ± 139.7 mm^2 | Growth Inhibition Rate (Ehrlich solid tumor; [6]): 4.2% | Size of Tumor (Ehrlich solid tumor; [6]): 190.7 ± 69.1 mm^2

COC(=O)C(C)(C)CCCOc1ccc(OCCCOc2cccnc2)cc1 [Compound I, methyl 2,2-dimethyl-5-[p-[3-(3-pyridyloxy)propoxy]phenoxy]pentanoate]
Growth Inhibition Rate (Ehrlich solid tumor; [1]): 29.6% | Size of Tumor (Ehrlich solid tumor; [1]): 164.9 ± 96.2 mm^2 | Growth Inhibition Rate (Ehrlich solid tumor; [2]): 26.2% | Size of Tumor (Ehrlich solid tumor; [2]): 172.8 ± 82.9 mm^2 | Growth Inhibition Rate (Ehrlich solid tumor; [3]): 36.5% | Size of Tumor (Ehrlich solid tumor; [3]): 148.7 ± 66.8 mm^2 | Growth Inhibition Rate (Ehrlich solid tumor; [4]): 36.9% | Size of Tumor (Ehrlich solid tumor; [4]): 336.6 ± 160.0 mm^2 | Growth Inhibition Rate (Ehrlich solid tumor; [5]): 30.7% | Size of Tumor (Ehrlich solid tumor; [5]): 369.1 ± 203.5 mm^2 | Growth Inhibition Rate (Ehrlich solid tumor; [6]): 45.6% | Size of Tumor (Ehrlich solid tumor; [6]): 290.2 ± 115.5 mm^2

CCOC(=O)C(C)(C)CCCCOc1ccc(OCCCCCOc2ccccn2)cc1 [Compound J, ethyl 6-[p-[5-(2-pyridyloxy)pentyloxy)phenoxy]-2,2-dimethylhexanoate]
Growth Inhibition Rate (Ehrlich solid tumor; [7]): 20.9% | Size of Tumor (Ehrlich solid tumor; [7]): 201.7 ± 48.2 mm^2 | Growth Inhibition Rate (Ehrlich solid tumor; [8]): 34.7% | Size of Tumor (Ehrlich solid tumor; [8]): 166.5 ± 65.3 mm^2 | Growth Inhibition Rate (Ehrlich solid tumor; [9]): 19.2% | Size of Tumor (Ehrlich solid tumor; [9]): 344.7 ± 108.4 mm^2 | Growth Inhibition Rate (Ehrlich solid tumor; [10]): 38.2% | Size of Tumor (Ehrlich solid tumor; [10]): 263.5 ± 97.1 mm^2

O=c1[nH]c(=O)n(C2CCCO2)cc1F (stereo not shown) [Futoraful, reference compound]
Pulmonary metastasis-inhibition rate (melanoma BL-6; [11]): 35.7% | The number of pulmonary nodules, median (melanoma BL-6; [11]): 13.5 | The number of pulmonary nodules, range (melanoma BL-6; [11]): 1-49 | Pulmonary metastasis-inhibition rate (melanoma BL-6; [12]): 69.0% | The number of pulmonary nodules, median (melanoma BL-6; [12]): 6.5 | The number of pulmonary nodules, range (melanoma BL-6; [12]): 1-16

CO[C@@]12[C@H](COC(N)=O)C3=C(C(=O)C(C)=C(N)C3=O)N1C[C@@H]1N[C@@H]12 [Mitomycin, reference compound]
Growth Inhibition Rate (Ehrlich solid tumor; [13]): 67.7% | Size of Tumor (Ehrlich solid tumor; [13]): 75.6 ± 31.5 mm^2 | Growth Inhibition Rate (Ehrlich solid tumor; [14]): 80.0% | Size of Tumor (Ehrlich solid tumor; [14]): 106.8 ± 62.2 mm^2

O=c1[nH]c(=O)n(C2CCCO2)cc1F (stereo not shown) [Tetrahydrofuryl-5-fluorouracil, reference compound]
Growth Inhibition Rate (MM-46 solid tumor; Day 14, 50 mg/kg p.o.): 14.2% | Size of Tumor (MM-46 solid tumor; Day 14, 50 mg/kg p.o.): 216.0 ± 55.1 mm^2 | Growth Inhibition Rate (MM-46 solid tumor; Day 14, 100 mg/kg p.o.): 14.7% | Size of Tumor (MM-46 solid tumor; Day 14, 100 mg/kg p.o.): 214.8 ± 55.6 mm^2 | Growth Inhibition Rate (MM-46 solid tumor; Day 21, 50 mg/kg p.o.): 26.9% | Size of Tumor (MM-46 solid tumor; Day 21, 50 mg/kg p.o.): 247.0 ± 101.8 mm^2 | Growth Inhibition Rate (MM-46 solid tumor; Day 21, 100 mg/kg p.o.): 26.0% | Size of Tumor (MM-46 solid tumor; Day 21, 100 mg/kg p.o.): 250.1 ± 92.9 mm^2 | Growth Inhibition Rate (Meth A solid tumor; Day 15, 50 mg/kg p.o.): 45.1% | Size of Tumor (Meth A solid tumor; Day 15, 50 mg/kg p.o.): 123.4 ± 69.9 mm^2 | Growth Inhibition Rate (Meth A solid tumor; Day 15, 100 mg/kg p.o.): 58.6% | Size of Tumor (Meth A solid tumor; Day 15, 100 mg/kg p.o.): 93.1 ± 50.3 mm^2 | Growth Inhibition Rate (Meth A solid tumor; Day 21, 50 mg/kg p.o.): 50.7% | Size of Tumor (Meth A solid tumor; Day 21, 50 mg/kg p.o.): 235.8 ± 124.4 mm^2 | Growth Inhibition Rate (Meth A solid tumor; Day 21, 100 mg/kg p.o.): 44.7% | Size of Tumor (Meth A solid tumor; Day 21, 100 mg/kg p.o.): 264.4 ± 110.6 mm^2
